How the values were obtained:
Assay type in all cases: cell-based, human
[1] = test system: MET (c-Met) in HEK293/SRE-Luc cells; assay: SRE-luciferase reporter bioassay, blocking of HGF-mediated MET activation; settings: antibodies plus HGF ligand; result in words
Text: (§1) The ability of anti-MET antibodies to block hepatocyte growth factor (HGF)-mediated MET activation was examined in a luciferase-based reporter assay. The growth factor HGF binds to the extracellular domain of its receptor c-Met (MET), triggering rapid homodimerization and activating several downstream signaling cascades. The anti-MET antibodies tested in this example were bivalent monospecific binders of MET, or anti-MET “bispecifics”, in which each arm of the bispecific antibody bound to a different and distinct epitope on MET. […]
(§2) Next, 2.0×10^5 HEK293/SRE-Luc cells were seeded in luciferase assay media in 96 well plates and incubated overnight at 37° C. in 5% CO2. […] Separately, the ability of the antibodies to activate c-Met in the absence of ligand was also assessed.
(§3) Luciferase activity was detected using the ONE-Glo™ Luciferase Assay System (Promega, Madison, Wis.), and emitted light was measured on a Victor or Envision luminometer (Perkin Elmer, Shelton, Conn.) and expressed as relative light units (RLUs). EC50/IC50 values were determined from a four-parameter logistic equation over a 12-point response curve using […] […]

[2] = test system: MET (c-Met) in HEK293/SRE-Luc cells; assay: SRE-luciferase reporter bioassay, ligand (HGF)-independent MET activation; settings: antibody alone at various concentrations; result in words
Text: as §1, §2, §3

HEK293 cells = assay: 3-day in vitro cytotoxicity assay (nuclear counts); settings: 3-day treatment
Procedure: (§4) To determine the relative cell-killing potency of anti-MET antibody drug conjugates (ADCs) described herein, cell-killing assays were run on multiple cells lines expressing varying levels of endogenous MET.
(§5) To measure in vitro cytotoxicity of anti-MET ADCs, nuclear counts after a 3 or 6-day treatment with the ADCs was assessed. […] For cell viability curves, serially diluted ADCs, unconjugated antibodies, or free payloads were added to the cells at final concentrations ranging from 100 nM to 0.01 nM (based on toxin concentration) and incubated for 3 or 6 days at 37° C. in 5% CO2. Cells were subsequently treated with 3 ug/ml Hoechst 33342 nuclear stain (Invitrogen, #H3570) while being fixed with 4% formaldehyde. Images were acquired on the ImageXpress micro XL (Molecular Devices, Sunnyvale, Calif.) and nuclear counts were determined via MetaXpress image analysis software (Molecular Devices, Sunnyvale, Calif.). Background nuclear counts from cells treated with […] digitonin were subtracted from all wells and viability was expressed as a percentage of the untreated controls. IC50 values were determined from a four-parameter logistic equation over a 10-point response curve (GraphPad Prism). The untreated condition for each dose-response curve is also included in the analysis and is represented as the lowest dose.

A549 cells [3] = assay: 3-day in vitro cytotoxicity assay (nuclear counts); settings: 3-day treatment
Procedure: as §4, §5

U87MG cells = assay: 3-day in vitro cytotoxicity assay (nuclear counts); settings: 3-day treatment
Procedure: as §4, §5

T47D cells [4] = assay: 3-day in vitro cytotoxicity assay (nuclear counts); settings: 3-day treatment
Procedure: as §4, §5

Hs746T cells [5] = assay: 3-day in vitro cytotoxicity assay (nuclear counts); settings: 3-day treatment
Procedure: as §4, §5

MDA-MB-231 cells = assay: 3-day in vitro cytotoxicity assay (nuclear counts); settings: 3-day treatment
Procedure: as §4, §5

J.RT3 cells = assay: 3-day in vitro cytotoxicity assay (nuclear counts); settings: 3-day treatment
Procedure: as §4, §5

A549 cells [6] = assay: 6-day in vitro cytotoxicity assay (nuclear counts); settings: 6-day treatment
Procedure: as §4, §5

T47D cells [7] = assay: 6-day in vitro cytotoxicity assay (nuclear counts); settings: 6-day treatment
Procedure: as §4, §5

Hs746T cells [8] = assay: 6-day in vitro cytotoxicity assay (nuclear counts); settings: 6-day treatment
Procedure: as §4, §5

EBC-1 cells [9] = assay: 6-day in vitro cytotoxicity assay (nuclear counts); settings: 6-day treatment
Procedure: as §4, §5

SNU-5 cells = assay: 3-day in vitro cytotoxicity assay (nuclear counts); settings: 3-day treatment
Procedure: as §4, §5

EBC-1 cells [10] = assay: 3-day in vitro cytotoxicity assay (nuclear counts); settings: 3-day treatment
Procedure: as §4, §5

NCI-H1993 cells = assay: 3-day in vitro cytotoxicity assay (nuclear counts); settings: 3-day treatment
Procedure: as §4, §5

MKN-45 cells = assay: 3-day in vitro cytotoxicity assay (nuclear counts); settings: 3-day treatment
Procedure: as §4, §5

[11] = test system: MET pathway in NCI-H596 cells; assay: Immunoblot of MET and ERK phosphorylation, time course; settings: HGF 50 ng/ml
Procedure: 250,000 NCI-H596 cells were seeded in a 12 well plate and cultured in RPMI Media supplemented with 10% FBS. […] The cells were subsequently incubated in 5% CO2 at 37° C. After 0, 2, 6 or 18 hours, cell lysates were prepared, protein content was normalized and immunoblot analysis was performed. MET phosphorylation and ERK phosphorylation were quantified with the ImageJ image processing program (T. Collins, BioTechniques 43: S25-S30, 2007). Phosphorylation levels were normalized to the Tubulin loading control and are expressed as fold change relative to control treatment.

monovalent anti-MET antibody: monovalent MET antibody generated using the heavy and light chain variable sequences of MetMab (U.S. Pat. No. 7,892,550 B2) [reference compound]
blocking of HGF-dependent MET activation (SRE-luciferase, FIG. 3B, FIG. 4B) [1]: showed greater HGF blocking
MET agonist activity in the absence of HGF ligand (SRE-luciferase, FIG. 3A, FIG. 4A) [2]: neither the monovalent nor the MET×MET bispecific antibody showed MET agonist activity

COc1cc2cc(c1Cl)N(C)C(=O)CC(OC(=O)C(C)N(C)C(=O)CCS)C1(C)OC1C(C)C1CC(O)(NC(=O)O1)C(OC)C=CC=C(C)C2 (centres unmarked) [DM1 (free drug)]
IC50 (HEK293 cells): 0.15 nM
Max % Kill (HEK293 cells): 95%
IC50 (A549 cells [3]): 2.56 nM
Max % Kill (A549 cells [3]): 97%
IC50 (U87MG cells): 0.61 nM
Max % Kill (U87MG cells): 89%
IC50 (T47D cells [4]): 1.33 nM
Max % Kill (T47D cells [4]): 91%
IC50 (Hs746T cells [5]): 1.46 nM
Max % Kill (Hs746T cells [5]): 81%
IC50 (MDA-MB-231 cells): 1.53 nM
Max % Kill (MDA-MB-231 cells): 89%
IC50 (J.RT3 cells): 0.07 nM
Max % Kill (J.RT3 cells): 100%

COc1cc2cc(c1Cl)N(C)C(=O)CC(OC(=O)C(C)N(C)C(=O)CCSSC)C1(C)OC1C(C)C1CC(O)(NC(=O)O1)C(OC)C=CC=C(C)C2 (centres unmarked) [DM1 (MeS-DM1)]
IC50 (A549 cells [6]): 0.49 nM
Max % Kill (A549 cells [6]): 90%
IC50 (T47D cells [7]): 0.24 nM
Max % Kill (T47D cells [7]): 96%
IC50 (Hs746T cells [8]): 1.39 nM
Max % Kill (Hs746T cells [8]): 88%
IC50 (EBC-1 cells [9]): 0.12 nM
Max % Kill (EBC-1 cells [9]): 62%
IC50 (SNU-5 cells): 1.22 nM
Max % Kill (SNU-5 cells): 99%
IC50 (EBC-1 cells [10]): 2.22 nM
Max % Kill (EBC-1 cells [10]): 90%
IC50 (NCI-H1993 cells): 2.86 nM
Max % Kill (NCI-H1993 cells): 81%
IC50 (MKN-45 cells): 2.73 nM
Max % Kill (MKN-45 cells): 85%

CNCCC(=O)N(C)C(C)C(=O)OC1CC(=O)N(C)c2cc(cc(OC)c2Cl)CC(C)=CC=CC(OC)C2(O)CC(OC(=O)N2)C(C)C2OC12C (centres unmarked) [M24 (Maytansinoid B released payload)]
IC50 (A549 cells [6]): > 100 nM
Max % Kill (A549 cells [6]): 10%
IC50 (T47D cells [7]): > 100 nM
Max % Kill (T47D cells [7]): 0%
IC50 (Hs746T cells [8]): > 100 nM
Max % Kill (Hs746T cells [8]): 10%
IC50 (EBC-1 cells [9]): > 100 nM
Max % Kill (EBC-1 cells [9]): 32%

HGF: hepatocyte growth factor, the MET ligand / MET-agonist [reference compound]
time of peak activation of MET and ERK [11]: 2 h

Reference: patent US12545735B2, “Anti-met antibodies, bispecific antigen binding molecules that bind met, and methods of use thereof” (REGENERON PHARMACEUTICALS, INC., priority 2016, dated 2026)
